Legend:
H82 xenograft tumors = assay: Xenograft tumor model, small-cell lung cancer; format: in vivo, mice; settings: 40 mg/kg twice daily, oral, vs vehicle
Description: (§1) FIGS. 4A-4H. Pharmacokinetics and anti-tumor growth activity of AOH1996 in vivo. FIG. 4A: After oral administration, the plasma concentrations of AOH1996 from three male and three female ES1^e/SCID mice at the indicated time points were averaged and graphed ±S.D. The inset contains PK parameters determined by a standard noncompartmental method. FIG. 4B: A similar PK study of AOH1996 was performed in dogs. FIGS. 4C-4E: Mice bearing the xenograft tumors of neuroblastoma (FIG. 4C: SK-N-BE(2)c), breast cancer (FIG. 4D: MDA-MB-468), and small-cell lung cancer (FIG. 4E: H82) were given vehicle only (black) or 40 mg/kg of AOH1996 (grey) twice daily immediately after the first measurement. Tumor sizes were measured by a dial caliper each week. Tumor volumes (0.4×L×W^2) were averaged and graphed ±S.E. (*, P<0.01). FIG. 4F: Animal body weight was monitored throughout the studies as an indicator of toxicity. […] FIG. 4G: The levels of phosphor-Chk1 (pChk1) and γH2A.X in SK-N-BE(2)c derived tumor samples were analyzed by IHC. […] The p values determined by the Log-rank (Mantel-Cox) test between combination treatment and each of the control groups are p=0.0003 (Combination vs. NoRx), p=0.005 (Combination vs. AOH1996 alone), and p=0.024 (Combination vs. CPT-11 alone).
(§2) In vivo tumor model. […] Tumor size and animal weight were measured weekly. […]

[1] = system: SK-N-AS derived xenograft tumors; assay: Survival of mice bearing xenograft tumors, AOH1996 with CPT-11; format: in vivo, ES1^e/SCID mice; settings: AOH1996 80 mg/kg oral 8 d; CPT-11 15 mg/kg i.p. 3 d; vs untreated
Description: as §1, with “alone). […]” for “alone).”
as §2

[2] = biological target: T1, PCNA interaction with RPB1 (Homo sapiens, UniProt P12004); assay: PCNA interaction with RPB1 (immunoprecipitation, western blotting); format: cell-based; settings: SK-N-AS
T1 construct: expressed in transfected cells; host or cells: SK-N-AS (FLAG-RPB1 exogenous; PCNA endogenous)
Description: FIGS. 5A-5E. Modulation of PCNA interaction with RNA polymerase II. FIG. 5A: Chromatin-bound (CB) proteins were fractioned from HEK293T cells expressing FLAG-tagged PCNA after the cells were treated with or without 500 nM AOH1996. Proteins in complex with FLAG-PCNA were immune-precipitated and analyzed by mass spectrometry. Shown are numbers of proteins whose abundances were altered (grey) or unaltered (black) by more than 2-fold by AOH1996 treatment. FIG. 5B: SK-N-AS cells exogenously expressing a FLAG-tagged RPB1 gene were fractioned before and after being treated with 500 nM AOH1996 overnight. PCNA in complex with chromatin-bound (CB) FLAG-RBP1 were analyzed by western blotting. FIG. 5C: Human SK-N-AS cells were treated with UV in the presence or absence of AOH1996 (AOH) or R9-caPep (caPep). Whole cell extracts were analyzed by western blotting. FIG. 5D: Cells exogenously expressing FLAG-tagged wildtype RPB1 or FLAG-tagged APIM-mutant RPB1 gene were fractioned. PCNA in complex with chromatin-bound (CB) FLAG-RBP1 were analyzed by western blotting. FIG. 5E: HEK293T cells were transiently transfected with a FLAG-tagged wildtype RPB1 (APIM WT) gene or mutant RPB1 gene (APIM mutant). The intracellular MCM7 and RBP1 (both the hypo-phosphorylated RNAPIIa and hyper-phosphorylated RNAPIIo forms) were analyzed by western blot after cells were treated by the indicated agents and/or UV.
Modulating PCNA interaction with transcription machinery.
Cell fractionation and immunoprecipitation. Cells were fractionated as previously described (Li et al., 2018). Briefly, intact nuclei isolated following osmotic lysis were homogenized using a 21 G needle. Chromatin was pelleted by centrifugation and incubated overnight at 4° C. with benzonase in two volumes of nuclease buffer (20 mM HEPES pH 7.5, 1.5 mM MgCl2, 1 mM EDTA, 150 mM KCl, 10% glycerol, 0.5 U μl-1 benzonase). The resulting supernatant was collected as the CB fraction. Alternatively, we sequentially incubated the chromatin pellet with RNase A and benzonase and collected the supernatants after each digestion as the CB:RNA+ and CB:RNA− fractions, respectively (Li et al., 2018).

COc1cccc(Oc2ccccc2NC(=O)CNC(=O)c2cccc3ccccc23)c1 [AOH1996, N-(2-((2-(3-methoxyphenoxy)phenyl)amino)-2-oxoethyl)-1-naphthamide]
tumor burden (H82 xenograft tumors): significantly reduced tumor burden | increase of median survival [1]: ~11.5% | PCNA interaction with RPB1 ([2]; chromatin-bound): enhanced interaction between PCNA and RPB1 | RPB1 levels ([2]; whole cell extracts): depleted RPB1 in cancer cells
